Experiments:
Assay type in all cases: ADME
[1] = The drug is tested on Bifidobacterium adolescentis strain: DSM20083 for biotransformation under anaerobic condition. The drug concentrations were measured over 6 timepoints collected between 0 and 12 hours of incubation by liquid-chromatography-coupled mass spectrometry (LC–MS); set-up: dose 5 uM, timepoint 0, 1.5, 3, 6, 9, 12 hours; settings: 5 µM
[2] = The drug is tested on Collinsella aerofaciens strain: DSM3979 for biotransformation under anaerobic condition. The drug concentrations were measured over 6 timepoints collected between 0 and 12 hours of incubation by liquid-chromatography-coupled mass spectrometry (LC–MS); set-up: dose 5 uM, timepoint 0, 1.5, 3, 6, 9, 12 hours; settings: 5 µM
[3] = The drug is tested on Parabacteroides distasonis strain: DSM20701 for biotransformation under anaerobic condition. The drug concentrations were measured over 6 timepoints collected between 0 and 12 hours of incubation by liquid-chromatography-coupled mass spectrometry (LC–MS); set-up: dose 5 uM, timepoint 0, 1.5, 3, 6, 9, 12 hours; settings: 5 µM
[4] = The drug is tested on Blautia hansenii strain: DSM20583 for biotransformation under anaerobic condition. The drug concentrations were measured over 6 timepoints collected between 0 and 12 hours of incubation by liquid-chromatography-coupled mass spectrometry (LC–MS); set-up: dose 5 uM, timepoint 0, 1.5, 3, 6, 9, 12 hours; settings: 5 µM
[5] = The drug is tested on Clostridium bolteae strain: DSM15670 for biotransformation under anaerobic condition. The drug concentrations were measured over 6 timepoints collected between 0 and 12 hours of incubation by liquid-chromatography-coupled mass spectrometry (LC–MS); set-up: dose 5 uM, timepoint 0, 1.5, 3, 6, 9, 12 hours; settings: enterocloster bolteae, 5 µM
[6] = The drug is tested on Clostridium scindens strain: DSM5676 for biotransformation under anaerobic condition. The drug concentrations were measured over 6 timepoints collected between 0 and 12 hours of incubation by liquid-chromatography-coupled mass spectrometry (LC–MS); set-up: dose 5 uM, timepoint 0, 1.5, 3, 6, 9, 12 hours; settings: 5 µM
[7] = The drug is tested on Faecalibacterium prausnitzii strain: DSM17677 for biotransformation under anaerobic condition. The drug concentrations were measured over 6 timepoints collected between 0 and 12 hours of incubation by liquid-chromatography-coupled mass spectrometry (LC–MS); set-up: dose 5 uM, timepoint 0, 1.5, 3, 6, 9, 12 hours; settings: faecalibacterium duncaniae, 5 µM
[8] = The drug is tested on Lactobacillus gasseri strain: DSM20243 for biotransformation under anaerobic condition. The drug concentrations were measured over 6 timepoints collected between 0 and 12 hours of incubation by liquid-chromatography-coupled mass spectrometry (LC–MS); set-up: dose 5 uM, timepoint 0, 1.5, 3, 6, 9, 12 hours; settings: 5 µM
[9] = The drug is tested on Lactobacillus paracasei strain: ATCC27092 for biotransformation under anaerobic condition. The drug concentrations were measured over 6 timepoints collected between 0 and 12 hours of incubation by liquid-chromatography-coupled mass spectrometry (LC–MS); set-up: dose 5 uM, timepoint 0, 1.5, 3, 6, 9, 12 hours; settings: lacticaseibacillus paracasei, 5 µM
[10] = The drug is tested on Ruminococcus gnavus strain: ATCC29149 for biotransformation under anaerobic condition. The drug concentrations were measured over 6 timepoints collected between 0 and 12 hours of incubation by liquid-chromatography-coupled mass spectrometry (LC–MS); set-up: dose 5 uM, timepoint 0, 1.5, 3, 6, 9, 12 hours; settings: mediterraneibacter gnavus, 5 µM
[11] = The drug is tested on Streptococcus anginosus strain: DSM20563 for biotransformation under anaerobic condition. The drug concentrations were measured over 6 timepoints collected between 0 and 12 hours of incubation by liquid-chromatography-coupled mass spectrometry (LC–MS); set-up: dose 5 uM, timepoint 0, 1.5, 3, 6, 9, 12 hours; settings: 5 µM
[12] = The drug is tested on Streptococcus mitis strain: DSM12643 for biotransformation under anaerobic condition. The drug concentrations were measured over 6 timepoints collected between 0 and 12 hours of incubation by liquid-chromatography-coupled mass spectrometry (LC–MS); set-up: dose 5 uM, timepoint 0, 1.5, 3, 6, 9, 12 hours; settings: 5 µM
[13] = The drug is tested on Streptococcus sanguinis strain: DSM20567 for biotransformation under anaerobic condition. The drug concentrations were measured over 6 timepoints collected between 0 and 12 hours of incubation by liquid-chromatography-coupled mass spectrometry (LC–MS); set-up: dose 5 uM, timepoint 0, 1.5, 3, 6, 9, 12 hours; settings: 5 µM
[14] = The drug is tested on Actinomyces graevenitzii strain: DSM15540 for biotransformation under microaerobic condition. The drug concentrations were measured over 6 timepoints collected between 0 and 12 hours of incubation by liquid-chromatography-coupled mass spectrometry (LC–MS); set-up: dose 5 uM, timepoint 0, 1.5, 3, 6, 9, 12 hours; settings: 5 µM
[15] = The drug is tested on Actinomyces naeslundi strain: DSM43013 for biotransformation under microaerobic condition. The drug concentrations were measured over 6 timepoints collected between 0 and 12 hours of incubation by liquid-chromatography-coupled mass spectrometry (LC–MS); set-up: dose 5 uM, timepoint 0, 1.5, 3, 6, 9, 12 hours; settings: actinomyces naeslundii, 5 µM
[16] = The drug is tested on Gemella morbillorum strain: DSM20572 for biotransformation under microaerobic condition. The drug concentrations were measured over 6 timepoints collected between 0 and 12 hours of incubation by liquid-chromatography-coupled mass spectrometry (LC–MS); set-up: dose 5 uM, timepoint 0, 1.5, 3, 6, 9, 12 hours; settings: 5 µM
[17] = The drug is tested on Lactobacillus fermentum strain: DSM20052 for biotransformation under microaerobic condition. The drug concentrations were measured over 6 timepoints collected between 0 and 12 hours of incubation by liquid-chromatography-coupled mass spectrometry (LC–MS); set-up: dose 5 uM, timepoint 0, 1.5, 3, 6, 9, 12 hours; settings: limosilactobacillus fermentum, 5 µM
[18] = The drug is tested on Lactobacillus gasseri strain: DSM20243 for biotransformation under microaerobic condition. The drug concentrations were measured over 6 timepoints collected between 0 and 12 hours of incubation by liquid-chromatography-coupled mass spectrometry (LC–MS); set-up: dose 5 uM, timepoint 0, 1.5, 3, 6, 9, 12 hours; settings: 5 µM
[19] = The drug is tested on Streptococcus mitis strain: DSM12643 for biotransformation under microaerobic condition. The drug concentrations were measured over 6 timepoints collected between 0 and 12 hours of incubation by liquid-chromatography-coupled mass spectrometry (LC–MS); set-up: dose 5 uM, timepoint 0, 1.5, 3, 6, 9, 12 hours; settings: 5 µM
[20] = The drug is tested on the gut metagenome community of A-01 with ENA study accession number: PRJEB31790 for biotransformation under anaerobic condition. The drug concentrations were measured over 7 timepoints collected between 0 and 12 hours of incubation by liquid-chromatography-coupled mass spectrometry (LC–MS); set-up: dose 5 uM, timepoint 0, 0.75, 1.5, 3, 6, 9, 12 hours; settings: 5 µM
[21] = The drug is tested on the gut metagenome community of A-03 with ENA study accession number: PRJEB31790 for biotransformation under anaerobic condition. The drug concentrations were measured over 7 timepoints collected between 0 and 12 hours of incubation by liquid-chromatography-coupled mass spectrometry (LC–MS); set-up: dose 5 uM, timepoint 0, 0.75, 1.5, 3, 6, 9, 12 hours; settings: 5 µM
[22] = The drug is tested on the gut metagenome community of A-09 with ENA study accession number: PRJEB31790 for biotransformation under anaerobic condition. The drug concentrations were measured over 7 timepoints collected between 0 and 12 hours of incubation by liquid-chromatography-coupled mass spectrometry (LC–MS); set-up: dose 5 uM, timepoint 0, 0.75, 1.5, 3, 6, 9, 12 hours; settings: 5 µM
[23] = The drug is tested on the gut metagenome community of A-10 with ENA study accession number: PRJEB31790 for biotransformation under anaerobic condition. The drug concentrations were measured over 7 timepoints collected between 0 and 12 hours of incubation by liquid-chromatography-coupled mass spectrometry (LC–MS); set-up: dose 5 uM, timepoint 0, 0.75, 1.5, 3, 6, 9, 12 hours; settings: 5 µM
[24] = The drug is tested on the gut metagenome community of T-01 with ENA study accession number: PRJEB31790 for biotransformation under anaerobic condition. The drug concentrations were measured over 7 timepoints collected between 0 and 12 hours of incubation by liquid-chromatography-coupled mass spectrometry (LC–MS); set-up: dose 5 uM, timepoint 0, 0.75, 1.5, 3, 6, 9, 12 hours; settings: 5 µM
[25] = The drug is tested on the gut metagenome community of P-01 with ENA study accession number: PRJEB31790 for biotransformation under microaerobic condition. The drug concentrations were measured over 7 timepoints collected between 0 and 12 hours of incubation by liquid-chromatography-coupled mass spectrometry (LC–MS); set-up: dose 5 uM, timepoint 0, 0.75, 1.5, 3, 6, 9, 12 hours; settings: 5 µM
[26] = The drug is tested on the gut metagenome community of P-03 with ENA study accession number: PRJEB31790 for biotransformation under microaerobic condition. The drug concentrations were measured over 7 timepoints collected between 0 and 12 hours of incubation by liquid-chromatography-coupled mass spectrometry (LC–MS); set-up: dose 5 uM, timepoint 0, 0.75, 1.5, 3, 6, 9, 12 hours; settings: 5 µM

C=CC[C@@H]1/C=C(\C)C[C@H](C)C[C@H](OC)[C@H]2O[C@@](O)(C(=O)C(=O)N3CCCC[C@H]3C(=O)O[C@H](/C(C)=C/[C@@H]3CC[C@@H](O)[C@H](OC)C3)[C@H](C)[C@@H](O)CC1=O)[C@H](C)C[C@@H]2OC.O [TACROLIMUS]
Bacterial Biotransformation [1]: Compound NOT metabolized | Bacterial Biotransformation [2]: Compound metabolized | Bacterial Biotransformation [3]: Compound NOT metabolized | Bacterial Biotransformation [4]: Compound metabolized | Bacterial Biotransformation [5]: Compound NOT metabolized | Bacterial Biotransformation [6]: Compound metabolized | Bacterial Biotransformation [7]: Compound NOT metabolized | Bacterial Biotransformation [8]: Compound NOT metabolized | Bacterial Biotransformation [9]: Compound NOT metabolized | Bacterial Biotransformation [10]: Compound NOT metabolized | Bacterial Biotransformation [11]: Compound NOT metabolized | Bacterial Biotransformation [12]: Compound NOT metabolized | Bacterial Biotransformation [13]: Compound NOT metabolized | Bacterial Biotransformation [14]: Compound NOT metabolized | Bacterial Biotransformation [15]: Compound NOT metabolized | Bacterial Biotransformation [16]: Compound NOT metabolized | Bacterial Biotransformation [17]: Compound NOT metabolized | Bacterial Biotransformation [18]: Compound NOT metabolized | Bacterial Biotransformation [19]: Compound NOT metabolized | Bacterial Biotransformation [20]: Compound NOT metabolized | Bacterial Biotransformation [21]: Compound NOT metabolized | Bacterial Biotransformation [22]: Compound metabolized | Bacterial Biotransformation [23]: Compound metabolized | Bacterial Biotransformation [24]: Compound metabolized | Bacterial Biotransformation [25]: Compound NOT metabolized | Bacterial Biotransformation [26]: Compound NOT metabolized

— ChEMBL document CHEMBL5724806, “Unraveling interindividual differences and functional consequences of gut microbial metabolism of immunosuppressants” (2024)
